Measured values: ChEMBL document CHEMBL3232773, “Peniphenones A-D from the mangrove fungus Penicillium dipodomyicola HN4-3A as inhibitors of Mycobacterium tuberculosis phosphatase MptpB” (J Nat Prod, 2014)

Assay: Inhibition of Mycobacterium tuberculosis H37Rv full-length PTPB expressed in Escherichia coli […] using 6,8-difluoromethylumbelliferyl phosphate as substrate assessed as inhibition of substrate hydrolysis

Compound | IC50 [nM]
CC(=O)c1cc(C)c(O)c(Cc2c(O)cc(-c3ccc(O)c(O)c3)oc2=O)c1O | 160
CC(=O)c1cc(C)c(O)c(CC2=C(C)C(=O)C(O)=C(C)C2=O)c1O | 1370
SODIUM ORTHOVANAD | 82
